Patent US9683019B2, “Cyclic polypeptides for the treatment of heart failure” (priority 2013, dated 2017)
Where a SMILES comes first, the peptide text is derived from it. Bridges are numbered along the chain shown (N, C = ends). [ ]: non-standard residue; d: D form. pGlu = O=C1CC[C@@H](C(=O)O)N1; d(hCys) = N[C@H](CCS)C(=O)O; dNle = CCCC[C@@H](N)C(=O)O; dNva = CCC[C@@H](N)C(=O)O; hCys = N[C@@H](CCS)C(=O)O; Nle = CCCC[C@H](N)C(=O)O; dAbu = CC[C@@H](N)C(=O)O

Test: Surrogate Activity-Based Plasma Stability Assay
Assay type: in vitro ADME
Conditions: rat
Text: Surrogate Activity-Based Plasma Stability Assay:
2) Calculate slope of value above and […]

Compound	half-life [h]
CCCC[C@@H](NC(=O)[C@@H]1CCCN1C(=O)[C@H](C)NC(=O)[C@H](CCCCN)NC(=O)[C@@H]1CSSC[C@H](NC(=O)[C@H](CCCNC(=N)N)NC(=O)[C@@H]2CCC(=O)N2)C(=O)N[C@@H](CCCNC(=N)N)C(=O)N[C@@H](CC(C)C)C(=O)N[C@@H](CO)C(=O)N1)C(=O)N[C@H](C)C(=O)N[C@H](Cc1ccccc1)C(=O)O [Example 24, pE-R-C*-R-L-S-C*-K-A-P-(D-Nle)-a-f-OH] ([pGlu]RCRLSCKAP[dNle][dA][dF]-OH; disulfide 3-7)	28.3
CCCC[C@@H](NC(=O)[C@@H]1CCCN1C(=O)CNC(=O)[C@H](CCCCN)NC(=O)[C@@H]1CSSC[C@H](NC(=O)[C@H](CCCNC(=N)N)NC(=O)[C@@H]2CCC(=O)N2)C(=O)N[C@@H](CCCNC(=N)N)C(=O)N[C@@H](CC(C)C)C(=O)N[C@@H](CO)C(=O)N1)C(N)=O [Example 25, pE-R-C*-R-L-S-C*-K-G-P-(D-Nle)-NH2] ([pGlu]RCRLSCKGP[dNle]-NH2; disulfide 3-7)	> 16.7
CC(C)C[C@@H]1NC(=O)[C@H](CCCNC(=N)N)NC(=O)[C@@H](NC(=O)[C@H](CCCNC(=N)N)NC(=O)[C@@H]2CCC(=O)N2)CSSCC[C@H](C(=O)N[C@@H](CCCCN)C(=O)NCC(=O)N2CCC[C@H]2C(=O)N[C@H](Cc2ccccc2)C(=O)N[C@H](C)C(=O)N[C@H](Cc2ccccc2)C(=O)O)NC(=O)[C@H](CO)NC1=O [Example 26, pE-R-C*-R-L-S-(D-hC)*-K-G-P-f-a-f-OH] ([pGlu]RCRLS[d(hCys)]KGP[dF][dA][dF]-OH; disulfide 3-7)	0.867
CCCC[C@@H](NC(=O)[C@@H]1CCCN1C(=O)CNC(=O)[C@H](CCCCN)NC(=O)[C@@H]1CSSC[C@@H](NC(=O)[C@H](CCCNC(=N)N)NC(=O)[C@@H]2CCC(=O)N2)C(=O)N[C@@H](CCCNC(=N)N)C(=O)N[C@@H](CC(C)C)C(=O)N[C@@H](CO)C(=O)N1)C(=O)N[C@H](CC)C(=O)N[C@H](Cc1ccccc1)C(=O)O [Example 27, pE-R-c*-R-L-S-C*-K-G-P-(D-Nle)-(D-abu)-f-OH] ([pGlu]R[dC]RLSCKGP[dNle][dAbu][dF]-OH; disulfide 3-7)	1.37
CCCC[C@H](NC(=O)[C@@H]1CCCN1C(=O)CNC(=O)[C@H](CCCCN)NC(=O)[C@@H]1CSSC[C@H](NC(=O)[C@@H]2CCCN2C(=O)[C@H](CCCNC(=N)N)NC(=O)[C@@H]2CCC(=O)N2)C(=O)N[C@@H](CC(C)C)C(=O)N[C@@H](CO)C(=O)N1)C(=O)N1CCC[C@H]1C(=O)NCCc1ccccc1 [Example 30, pE-R-P-C*-L-S-C*-K-G-P-Nle-P-NH(Phenethyl)]	11
CCCC[C@H](NC(=O)[C@@H]1CCCN1C(=O)CNC(=O)[C@H](CCCCN)NC(=O)[C@@H]1CSSC[C@H](NC(=O)[C@@H]2CCCN2C(=O)[C@H](CCCNC(=N)N)NC(=O)[C@@H]2CCC(=O)N2)C(=O)N[C@@H](CC(C)C)C(=O)N[C@@H](CO)C(=O)N1)C(=O)NCCc1ccccc1 [Example 31, pE-R-P-C*-L-S-C*-K-G-P-Nle-NH(Phenethyl)]	0.718
CCCC[C@@H](NC(=O)[C@@H]1CCCN1C(=O)CNC(=O)[C@H](CCCCN)NC(=O)[C@H]1CCSSC[C@@H](NC(=O)[C@@H]2CCCN2C(=O)[C@H](CCCNC(=N)N)NC(=O)[C@@H]2CCC(=O)N2)C(=O)N[C@@H](CC(C)C)C(=O)N[C@@H](CO)C(=O)N1)C(=O)N[C@H](C)C(=O)N[C@H](Cc1ccc(O)cc1)C(=O)O [Example 37, pE-R-P-c*-L-S-(D-hC)*-K-G-P-(D-Nle)-a-y-OH] ([pGlu]RP[dC]LS[d(hCys)]KGP[dNle][dA][dY]-OH; disulfide 4-7)	0.783

Further lines, results first:

half-life [h]	Compound
0.217	CCCC[C@H](NC(=O)[C@@H]1CCCN1C(=O)CNC(=O)[C@H](CCCCN)NC(=O)[C@@H]1CSSC[C@H](NC(=O)[C@@H]2CCCN2C(=O)[C@H](CCCNC(=N)N)NC(=O)[C@@H]2CCC(=O)N2)C(=O)N[C@@H](CC(C)C)C(=O)N[C@@H](CO)C(=O)N1)C(=O)N1CCC[C@H]1C(=O)N[C@@H](Cc1ccccc1)C(=O)O [Example 28, pE-R-P-C*-L-S-C*-K-G-P-Nle-P-F-OH] ([pGlu]RPCLSCKGP[Nle]PF-OH; disulfide 4-7)
> 16.7	CCCC[C@@H](NC(=O)[C@@H]1CCCN1C(=O)CNC(=O)[C@H](CCCCN)NC(=O)[C@@H]1CSSC[C@H](NC(=O)[C@@H]2CCCN2C(=O)[C@H](CCCNC(=N)N)NC(=O)[C@@H]2CCC(=O)N2)C(=O)N[C@@H](CC(C)C)C(=O)N[C@@H](CO)C(=O)N1)C(=O)N[C@H](C)C(=O)N[C@H](Cc1ccccc1)C(=O)O [Example 33, pE-R-P-C*-L-S-C*-K-G-P-(D-Nle)-a-f-OH] ([pGlu]RPCLSCKGP[dNle][dA][dF]-OH; disulfide 4-7)
> 16.7	CCCC[C@@H](NC(=O)[C@@H]1CCCN1C(=O)CNC(=O)[C@H](CCCCN)NC(=O)[C@@H]1CSSC[C@H](NC(=O)[C@@H]2CCCN2C(=O)[C@H](CCCNC(=N)N)NC(=O)[C@@H]2CCC(=O)N2)C(=O)N[C@@H](CC(C)C)C(=O)N[C@@H](CO)C(=O)N1)C(=O)N[C@H](Cc1ccccc1)C(=O)O [Example 34, pE-R-P-C*-L-S-C*-K-G-P-(D-Nle)-f-OH] ([pGlu]RPCLSCKGP[dNle][dF]-OH; disulfide 4-7)
0.683	CCCC[C@@H](NC(=O)[C@@H]1CCCN1C(=O)CNC(=O)[C@H](CCCCN)NC(=O)[C@@H]1CCSSCC[C@@H](NC(=O)[C@@H]2CCCN2C(=O)[C@H](CCCNC(=N)N)NC(=O)[C@@H]2CCC(=O)N2)C(=O)N[C@@H](CC(C)C)C(=O)N[C@@H](CO)C(=O)N1)C(=O)N[C@H](CCC)C(=O)N[C@H](Cc1ccccc1)C(=O)O [Example 38, pE-R-P-(D-hC)*-L-S-hC*-K-G-P-(D-Nle)-(D-Nva)-f-OH] ([pGlu]RP[d(hCys)]LS[hCys]KGP[dNle][dNva][dF]-OH; disulfide 4-7)

Same assay, conditions: rat, read-out: Surrogate activity-based Plasma stability t½

Compound	half-life [h]
C=CCCCCCCCCCC(CCCCCCCCCCC(=O)O)(C(=O)O)C(=O)NCCOCCOCCOCCOCCOCCOCCOCCOCCOCCOCCOCCOCCOCCOCCOCCOCCOCCOCCOCCOCCOCCOCCOCCn1nnc2c1CC[C@H]1[C@@H](CC2)[C@H]1COC(=O)NCCCC[C@H](NC(=O)[C@@H]1CSSC[C@H](NC(=O)[C@@H]2CCCN2C(=O)[C@H](CCCNC(=N)N)NC(=O)[C@@H]2CCC(=O)N2)C(=O)N[C@@H](CC(C)C)C(=O)N[C@@H](CO)C(=O)N1)C(=O)NCC(=O)N1CCC[C@H]1C(=O)N[C@H](CCCC)C(=O)NCCc1ccccc1 (stereo partly drawn) [Example 40]	> 16.7
